Consider eight substances from patent US5262403A, “Glycosaminoglycan derivatives and their use as inhibitors of tumor invasiveness of metastatic profusion-II” (priority 1990, dated 1993).

The subject of series [1] is B16 melanoma cells. The series can be described thus: Blood-borne lung colonization, mice treated i.v. with heparins. Type of series: in vivo, C57BL/6 mice. The conditions noted are these: for Number of lung colonies, Median: 0.1 ml of 5.0 mg/ml i.v. 4 hr before and 20 hr after inoculation of 5×10^4 cells, 20 days; for establishment of metastatic tumor colonies in the lungs, in words: i.v. treatment of mice. The protocol:
Chemically modified heparins were tested in mice as inhibitors of blood-borne lung colonization by melanoma cells. Male C57BL/6 mice 4 to 6 weeks old were obtained from Charles River, Inc. and quarantined for 2 weeks. The mice were intravenously inoculated with 5×10^4 B16-BL melanoma cells. Treated mice were intravenously injected with 0.1 ml each of heparin or chemically modified heparin (5.0 mg/ml) 4 hr before and 20 hr after inoculation with the melanoma cells. The chemically modified heparins used were: N-acetylated N-desulfated heparin; carboxyl-reduced heparin; and N-resulfated N, O-desulfated heparin.
Mice were killed 20 days after tumor inoculation and autopsied. The numbers of pulmonary tumor colonies were counted after the lungs were perfused via the trachea with 4% formalin in Dulbecco's phosphate-buffered saline.

The test system of series [2] is rat mammary adenocarcinoma MTF7. The series can be described thus: Experimental metastasis of rat mammary adenocarcinoma, rats treated i.v. Type of series: in vivo, Fischer (F344/CDL) rats. The note with it: for Lung Metastases per rat, Median No.: 0.1 ml of 10 mg/ml i.v. 8 h before and 16 h after 5×10^4 MTF7 cells, 30 days; for effectiveness against lung tumor colonies of mammary carcinoma, in words: i.v. treatment of rats. How it is done:
Inbred 8-week-old female Fischer (F344/CDL) rats were supplied by the Charles River Breeding Laboratories (Kingston, N.Y.). Animals were quarantined for 7 days before use and feed standard rodent chow and unchlorinated spring water ad libitum. They were maintained under guidelines set forth by the University of Texas M. D. Anderson Cancer Center and the Institute of Laboratory Animal Resources, National Research Council. […] The cells grown at 37° C. in an atmosphere of 5% CO2 in humidified air in an 1:1 mixture of Dulbecco's modified minimum essential media and Ham's F12 media containing 10% fetal bovine serum and no antibiotics in 100 mm-diam. tissue culture plates.
The cells used in this study were in exponential growth phase and were from passages 14 to 20 in vitro and were free of mycoplasma and viral contamination.
Rats (9 per group) were injected i.v. (lateral tail vein) with 0.1 ml of 10 mg/ml solution of heparin, N-acetylated-N-desulfated heparin, or carboxyl-reduced heparin. Eight hours later, the same rats were injected i.v. with 5×10^4 MTF7 mammary carcinoma cells suspended in 0.2 ml serum-free media. Sixteen hours after injections of carcinoma cells, rats were treated with unmodified or chemically modified heparin at the same dose as the previous treatment 8 hours prior to the injection of carcinoma cells.
Rats were killed 30 days after the initial injection of carcinoma cells and examined for the number of lung tumor colonies, that should represent the degree of metastatic spread of mammary carcinoma cells.

In series [3] the test system is B16 melanoma heparanase. The series can be described thus: Solid-phase assay for heparanase inhibitors (3H-HS-agarose beads). The class given is biochemical, mouse. The note with it: B16-BL6 lysate of 10^6 cells, various concentrations, 37° C.
Protocol: The measurements were performed by incubating B16-BL6 melanoma heparanase. The measurements were performed by incubating B16-BL6 melanoma cell lysates equivalent to 10^6 cells with a suspension of ^3 H-HS-agarose beads prepared by partial N-desulfation and ^3 H-acetylation (approximately 20% suspension), and various concentrations of heparanase inhibitors at 37° C. for 24 hr with gentle mixing.
Source of Heparanase. Highly invasive mouse B16 melanoma (B16-BL6) cells were provided by Dr. I. J. Fidler, (M.D. Anderson Hospital, Houston, Tex.) and were cultured as previously described (Irimura et al., (1983a) and Irimura et al. (1984)). Cell extracts were prepared in 5 mM Tris-HCl buffer, pH 7.4, containing 0.25M sucrose, 50 μM calcium chloride, 10 μM phenylmethylsulfonylfluoride, and 0.2% Nonidet P-40 (Irimura et al., (1983). The melanoma extracts were stored frozen at -80° C. and used as crude heparanase.
Preparation of Solid-phase Substrates for Heparanase and Inhibitor Assays.
Solid-phase Assays for Heparanase and Heparanase Inhibitors. ^3 H-HS-agarose was suspended in Dulbecco's phosphate buffered saline (DPBS) at about 20% (v/v). The incubation conditions for the solid-phase assay were identical to those of the HPLC assay, except that 75 μl of the ^3 H-HS-agarose suspension was used instead of the HS so that the incubation mixture consisted of B16 melanoma extract, chemically modified heparins, 4×heparanase assay buffer, and ^3 H-HS-agarose suspension. After incubation, the reaction mixture was placed on ice, chilled 5% trichloroacetic acid (50 ul) added, the mixture incubated for 10 min, and centrifuged. Radioactivity in the supernatant and the pellet was determined separately after mixing with Hydrofluor.
Series [4] relates to vascular smooth muscle cells. The conditions noted are these: cited from earlier work.
In series [5] the test system is B16-BL6 melanoma cells. The series can be described thus: 3H-thymidine incorporation, growth of melanoma cells in tissue culture. Type of series: cell-based, mouse. The conditions noted are these: with or without 5% fetal bovine serum; 48 h exposure. The protocol:
FIG. 7: Effects of chemically modified heparins on the incorporation of ^3 H-thymidine to B16-BL6 melanoma cells grown in tissue culture.
In order to assess a possibility that the effects of modified heparins on the blood-borne lung colonization of B16 melanoma cells were due to their direct toxic effects on the cells, the growth of B16 melanoma in the presence or absence of modified heparins were examined in vitro. B16-BL6 melanoma cells were seeded in multiwell tissue culture plates at a density 10,000 per each 1 cm well in the presence or absence of 5% fetal bovine serum. Six hours later, modified heparins were added, then 24 hours later, ^3 H thymidine was added to a final concentration 5 uCi/ml. After further 24 hour incubation, trichloroacetic acid-insoluble materials were collected, dissolved in 1M sodium hydroxide solution, neutralized and counted on a liquid scintillation counter.

Series [6] relates to B16-BL6 melanoma cells. The series can be described thus: Experimental blood-borne lung colonization, melanoma cells preincubated with heparins. Type of series: in vivo, C57BL/6 mice. The note with it: for Number of colonies (median), Exp 1 / Number of colonies (median), Exp 2 / Number of colonies, Exp 1 (individual mice): cells incubated with 500 ug/ml at 4° C. for 2 hr before i.v. injection, lung, 20 days; for Number of colonies, Exp 1 (individual mice): 9 mice/group. The protocol: Experimental Metastatic Lung Colonization of Melanoma Cells. Male C57BL/6 mice 4 to 6 weeks old were obtained from Charles River, Inc. (Kingston, Md.) and quarantined for 2 weeks. Animals were fed normal rodent chow and unchlorinated spring water. B16-BL6 cells were grown to subconfluence, detached from plastic dishes by incubating in 2 mM EDTA, 0.14M NaCl and 10 mM sodium phosphatebuffer, pH 7.4, for 5-10 min, and suspended in a 1:1 mixture of Dulbecco's modified minimum essential medium and Ham's F12 medium. […] Treated or untreated cells (5×10^4 /0.1 ml) were injected intravenously to each mouse. Mice were killed 20 days later and autopsied. The numbers of pulmonary tumor nodules were counted after the lung was perfused via the trachea with 4% formalin in Dulbecco's phosphate buffered saline. Extrapulmonary tumor formation was assessed in each animal and recorded.

In series [7] the test system is blood coagulation. The series can be described thus: Anticoagulation activity by USP standard assay. The note with it: % of the anticoagulation activity of unmodified heparin.
The subject of series [8] is B16 melanoma heparanase. The series can be described thus: HPLC assay for heparanase inhibition (14C-HS degradation, gel-permeation chromatography). Type of series: biochemical, mouse. The conditions noted are these: 1 mg/ml in incubation mixture, crude heparanase of 10^6 B16-BL6 cells, 37° C., 6 h.
Protocol: A high-speed gel-permeation chromatography system was equipped with a 0.70×75 cm column of Fractogel TSK-HW55(S). Elution was performed with 0.2M NaCl at a flow rate of 1.0 ml/min at 55° C. Each 0.5-ml fraction corresponding to 30-sec elution was collected, mixed with 3 ml of Hydrofluor and its radioactivity determined. Panel A, ^14 C-HS was incubated with heat-inactivated crude heparanase (10^6 B16-BL6-melanoma cell equivalents) at 37° C. for 6 h, and analyzed. B, same incubation as A except that the enzyme was not heat-inactivated.
High-speed gel permeation chromatography was performed as described previously (Irimura et al., (1983a) Anal. Biochem., V 130, pp 461-468) using a Constametric III (LDC-Milton Roy, Riviera Beach, Fla.) with a single 0.7×75 cm stainless steel column packed with Fractogel TSK HW-55(S). Elution was accomplished with 0.2M sodium chloride at flow rates of 1.0 ml/min or 0.75 ml/min. Absorption at 210 nm was monitored for the analogs of chemically modified heparin. For the qualitative examination of radiolabeled HS-degradation products, each fraction corresponding to 30-sec elution was collected into plastic scintillation vials, and radioactivity in each vial was determined after the fraction was mixed with 3.0 ml of Hydrofluor (National Diagnostics, Somerville, N.J.).
Cell extracts were prepared in 5 mM Tris-HCl buffer, pH 7.4, containing 0.25M sucrose, 50 μM calcium chloride, 10 μM phenylmethylsulfonylfluoride, and 0.2% Nonidet P-40 (Irimura et al., (1983). The melanoma extracts were stored frozen at -80° C. and used as crude heparanase.
High-Performance Liquid Chromatography [HPLC] Assay for Heparanase. Fifty microliters of melanoma extract (equivalent to 10^6 cells) were mixed with chemically modified heparin (5 mg/ml in water), 50 μl of 4×heparanase assay buffer (0.4 sodium phosphate buffer, pH 5.8, containing 0.4% Triton X-100, 0.6M sodium chloride, and 0.4% sodium azide) and about 3000 cpm of ^14 C-HS.
Series [9] concerns B16-BL6 melanoma. The series can be described thus: Release of 35S-labeled substances from lung capillary endothelial extracellular matrix by melanoma cells. The conditions noted are these: for degradation of sulfated molecules of endothelial matrix by melanoma cells: 35S-labeled matrix, B16-BL6 cells, 37° C., 18 hours. Type of series: cell-based, mouse. The protocol:
FIG. 6: Effects of chemically modified heparins on the release of ^35 S labeled substances from the extracellular matrix of mouse lung capillary endothelial cells in vitro. […] (See: Nakajima et al., Science 220:611-613, 1983, for the methods.)
Effects of chemically modified heparins on the release of ^35 S-labeled polysaccharides from the extra-cellular matrix of mouse lung endothelial cells were studied in vitro. The endothelial cells isolated from mouse lung capillary were grown in the presence of ^35 S-sulfate, and the extracellular matrix-like material was isolated on multiwell plastic tissue culture plates by hypotonic lysis of the cells. The matrices (1 cm diameter) were incubated with mouse B16-BL6 melanoma at 37° C. for 18 hours. The released radioactivity was counted.

The subject of series [10] is B16-F10 melanoma cells. The series can be described thus: Invasion of organ-cultured lung tissues by melanoma cells. The conditions noted are these: organ-cultured minced mouse lung. The class given is cell-based. From the text: FIG. 10: Effects of modified heparins on the B16-F10 melanoma cell-invasionof isolated mouse lung tissues in vitro. The experimental conditions were the same as the adhesion experiments. The invaded cells were counted on 4 μm sections under a light microscope. (See Nicolson et al., (1985) Invasion Metastasis, 5:144-158, for detailed methods.)
The effects of these glycosaminoglycan derivates on organ-specific adhesion and invasion of B16 melanoma cells were studied by using primary organ culture techniques in vitro. Minced lung tissues (0.5-1.0 cubic mm) from C57BL/6 mice were placed in glass vials and incubated in HEPES-buffered Dulbecco's modified minimum essential media containing 10% fetal bovine serum and 50 ug/ml gentamycin under continuous gyration at 66 rpm. After the medium was changed to a fresh medium without gentamycin, B16-F10 melanoma cells were added at a final concentration of 100,000/ml with or without various modified heparins. After various incubation times, the tissues were fixed in buffered formalin and processed for light microscopy. The adhesion and invasion of the tumor cells were examined on […] sections stained with hematoxylin and eosin.

Series [11] concerns melanoma heparanase. The conditions noted are these: cited from earlier work.
For series [12], the system named is B16-BL6 cells. The series can be described thus: Adhesion of melanoma cells to endothelial cell monolayers. Type of series: cell-based, mouse. The conditions noted are these: B16 cells pretreated 2 hrs, continuous presence of compounds, 37° C. How it is done:
FIG. 8: Adhesion of B16 melanoma cells to bovine aortic endothelial cell monolayers. FIG. 8(a) B16 melanoma cells were pretreated with modified heparins at room temperature for 2 hrs, and the adhesion assays were performed in the continuous presence of these compounds at 37° C. FIG. 8(b) Endothelial cells were pretreated with modified heparins at 37° C. for 2 hrs, then adhesion assays were performed. (See Nicolson and Custead, (1985) Cancer Res. 45:331-336, for the methods
One of the most critical steps in the tumor cell-microvascular endothelium interaction during metastatic lung colonization of melanoma cells is the adhesive interaction of melanoma cells with endothelial cells. The effects of modified heparins on the adhesion of B16 melanoma to the cell monolayer and to the extracellular matrix of lung capillary endothelial cells were studied in vitro. The endothelial cells were grown in tissue culture and the extracellular matrices were isolated as described in Example 8.

Entries after “also recorded” stand apart in the source; their conditions may differ.

In the case of N-acetylated N-desulfated heparin, in [1], the “Number of lung colonies, Median” value came out at 60. Also, in series [2], the “Lung Metastases per rat, Median No.” value was 29 and the “effectiveness against lung tumor colonies of mammary carcinoma, in words” value (“effectiveness” for short) was “also effective”. Moreover, the “heparanase inhibitory activity (solid-phase assay, release of 3H-HS fragments)” value (“heparanase inhibitory activity” below) in series [3] is given as “partially restored”. The “anti-proliferative (growth inhibitory) activity” value in series [4] is “retained full growth inhibitory properties”. Further, in [5], the “incorporation of 3H-thymidine to B16 cells” value (from here on “incorporation of 3H-thymidine”) is given as “no significant effects”. In series [6], the “Number of colonies (median), Exp 1” value is 43; the “Number of colonies (median), Exp 2” value was 5; the “Number of colonies, Exp 1 (individual mice)” value (“Number … (individual mice)” below) is reported as 199. In series [7], the “anticoagulation activity relative to unmodified heparin” value is recorded as “less than 1%”.
Regarding “N-acetylated N- and O-desulfated heparin”, the “heparanase inhibitory activity” value in series [3] is “did not, however, restore the inhibitory activity”.
Regarding N- and O-desulfated heparin, in series [8], the “inhibition of degradation of HS by heparanase (HPLC assay)” value (“inhibition of degradation of HS” below) is given as “failed to inhibit degradation”. For the same substance, the “heparanase inhibitory activity” value in [3] is “failed to how any inhibitory activity”.
As for carboxy-reduced heparin, in series [1], the “Number of lung colonies, Median” value is on record as 6 and the “establishment of metastatic tumor colonies in the lungs, in words” value is listed as “most effective”. In addition, in [2], the “Lung Metastases per rat, Median No.” value is listed as 25 and the “effectiveness” value is recorded as “also effective”. Moreover, in [3], the “heparanase inhibitory activity” value is listed as “weaker inhibitory activity than heparin”. The “incorporation of 3H-thymidine” value in series [5] is recorded as “no significant effects”. In [6], the “Number of colonies (median), Exp 1” value is recorded as 29; the “Number of colonies (median), Exp 2” value was found to be 51; the “Number … (individual mice)” value amounted to 53. Besides, in series [9], the “degradation of sulfated molecules of endothelial matrix by melanoma cells” value (“degradation … by melanoma cells” for short) is “effectively blocked the degradation”. Besides, the “anticoagulation activity relative to unmodified heparin” value in series [7] is listed as “less than 1%”.
For the substance “N-desulfated N-resulfated heparin [reference compound]”, the “anti-proliferative (growth inhibitory) activity” value in series [4] is “retained full growth inhibitory properties”.
As to “N-resulfated N- and O-desulfated heparin”, in [1], the “Number of lung colonies, Median” value was 36. In addition, the “inhibition of degradation of HS” value in series [8] is “partially restored”. Also, the “heparanase inhibitory activity” value in [3] is given as “partial restoration of activity”. In addition, the “Number of colonies (median), Exp 2” value in series [6] is 8. Besides, the “degradation … by melanoma cells” value in [9] is reported as “effectively blocked the degradation”. In addition, in series [7], the “anticoagulation activity relative to unmodified heparin” value is reported as “less than 1%”.
For Heparin [reference compound], in [1], the “Number of lung colonies, Median” value is listed as 30 and the “establishment of metastatic tumor colonies in the lungs, in words” value is reported as “inhibited formation of lung metastases”. Further, in [8], the “inhibition of degradation of HS” value is on record as “no degradation was observed”. For the same substance, in series [2], the “Lung Metastases per rat, Median No.” value is listed as 9 and the “effectiveness” value is “most effective”. Besides, the “heparanase inhibitory activity” value in series [3] is given as “consistent with those of the HPLC assay”. For the same substance, in series [10], the “invasion of B16 melanoma cells to lung tissues” value is “inhibited invasion”. The “incorporation of 3H-thymidine” value in series [5] is “no significant effects”. Also, the “inhibition of HS degradation by B16 cell extracts” value in series [11] is “inhibited HS degradation”. Also, in series [6] (20 days after injection of preincubated cells), the “number of visible melanoma colonies in lung, in words” value is “greater”. Besides, in series [6], the “Number of colonies (median), Exp 1” value amounted to 16; the “Number of colonies (median), Exp 2” value is recorded as 0; the “Number … (individual mice)” value is on record as 174. In series [12], the “time course of adhesion to endothelial cell monolayer, melanoma cells pretreated” value is “None of these compounds, including intact heparin, significantly altered”. In addition, the “degradation … by melanoma cells” value in series [9] was “inhibited the degradation”. Further, the “spontaneous (non-enzymatic) release of 35S labeled macromolecules” value in series [9] (in the absence of B16 melanoma cells) is reported as “apparently induced spontaneous release; also recorded: induced non-enzymatic release”.
As for completely N-desulfated heparin, in series [8], the “inhibition of degradation of HS” value was “failed to inhibit degradation”. For the same substance, the “heparanase inhibitory activity” value in series [3] is “failed to how any inhibitory activity”. The “anti-proliferative (growth inhibitory) activity” value in series [4] was “lost their anti-proliferative activity”.
